Test results taken from patent US5407936A, “Benzimidazole derivative, process for preparing the same, antiemetic agent containing the same as active ingredient and intermediate compound for preparing the same” (priority 1991, dated 1995).

Legend:
[1] = molecular target: T1, 5-HT3 receptor (Rattus norvegicus, UniProt P35563); test: 5-HT3 antagonistic activity: antagonism of Bezold-Jarisch reflex (reflective bradycardia) induced by 5-HT; assay type: in vivo, S.D. male rats; conditions: for Duration time of 5-HT3 antagonistic activity: i.v., time until inhibitory rate of reflective bradycardia became 20% or less; for ED50: rat, iv, read-out: ED50 [95% Confidence limits], antagonistic activity against Bezold-Jarisch reflex
T1 construct: S.D. male rats (weighing 200 to 350 g) were anesthetized; from tissue; host or cells: whole anesthetized S.D. male rats (in vivo; endogenous receptor)
T1 sequence (P35563 24-483): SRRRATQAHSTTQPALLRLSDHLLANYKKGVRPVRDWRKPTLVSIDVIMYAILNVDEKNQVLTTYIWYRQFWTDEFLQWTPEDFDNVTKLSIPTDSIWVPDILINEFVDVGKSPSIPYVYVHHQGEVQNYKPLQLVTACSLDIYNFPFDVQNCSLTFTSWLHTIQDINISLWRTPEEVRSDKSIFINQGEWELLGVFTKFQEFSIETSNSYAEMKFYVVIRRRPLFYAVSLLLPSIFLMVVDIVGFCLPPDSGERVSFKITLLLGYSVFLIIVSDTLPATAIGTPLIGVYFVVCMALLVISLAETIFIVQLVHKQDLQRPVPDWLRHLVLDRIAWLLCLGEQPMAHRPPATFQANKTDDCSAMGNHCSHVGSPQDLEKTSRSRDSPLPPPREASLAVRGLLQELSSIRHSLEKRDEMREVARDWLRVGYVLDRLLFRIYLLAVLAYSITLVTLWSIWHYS
Experimental: 5-HT3 antagonistic activity:
The 5-HT3 antagonistic activity was measured in accordance with the method by Collins et al. [Br. J. Pharmacol., 80, 570P (1983)] using as an index the inhibitory activity against reflective bradycardia [Bezold-Jarisch reflex] induced by 5-HT.
That is, S.D. male rats (weighing 200 to 350 g) were anesthetized by intraperitoneal administration of urethane ([…]) and introduced with cannula into the carotid and the pulse frequency was measured. 5-HT was dissolved in physiological saline and intravenously administered (0.04 mg/kg). The test compounds were dissolved in physiological saline or physiological saline containing 5% ethanol and intravenously administered five minutes before the administration of 5-HT.
ED50 values were obtained from a dose-response curve of inhibitory rate of reflective bradycardia by the test compounds and the 5-HT3 antagonistic activity was compared.
In addition, the test compounds (about 25 times amount of the above ED50 value) and 5-HT were intravenously administered in the same manner as mentioned above and thereafter 5-HT (0.04 mg/kg) was intravenously administered with the passage of time.

[2] = tested on: cisplatin-induced vomiting; test: Preventive and therapeutic effects against vomiting induced by cisplatin; assay type: in vivo, male ferrets; conditions: i.v.; for Inhibitory rate, preventive effect: 5 minutes before cisplatin (10 mg/kg), vomiting counted for 4 hours; for Inhibitory rate, therapeutic effect: after appearance of vomiting (about 80 minutes after cisplatin 10 mg/kg), counted for 4 hours
Experimental: Preventive and therapeutic effects against vomiting induced by cisplatin:
The experiment was conducted in accordance with the method by Costall et al. [Neuropharmacology, 26, 1321-1326 (1987)].
That is, male ferrets (weighing 1.0 to 1.6 kg, three animals in each group) underwent an implant operation of cannula at the jugular vein for intravenous administration. For evaluating the preventive effects, the test compounds dissolved in a physiological saline or in a physiological saline containing 5% ethanol or a physiological saline (control) were intravenously administered to the ferrets three days after the operation, then after 5 minutes, cisplatin (10 mg/kg) dissolved in a physiological saline was intravenously administered to the ferrets over 30 seconds, and a number of vomiting caused between just after the administration of cisplatin and 4 hours after the administration was measured. As to the therapeutic effects, cisplatin (10 mg/kg) dissolved in a physiological saline was intravenously administered to the ferrets three days after the operation over 30 seconds. After appearance of vomiting (about 80 minutes after the administration of cisplatin), the test compounds dissolved in a physiological saline or in a physiological saline containing 5% ethanol or a physiological saline (control) were intravenously administered to the ferrets and then a number of vomiting occurred during 4 hours thereafter was counted. The inhibitory rate was calculated by the following formula: Inhibitory rate (%)={1-(mean number of vomiting in the group administered with the test compound/mean number of vomiting in the control group)}×100

[3] = tested on: ddY Male mice; test: Acute toxicity; assay type: in vivo; conditions: 100 mg/kg intravenously; observed for 7 days; five mice per group
Description: The same as in Experiment 2

[4] = tested on: vomiting caused by the administration of the chemotherapeutics such as cisplatin; conditions: Cancer. Chemother. Pharmacol., 23, 389-391 (1989); cited from earlier work

Duration time of 5-HT3 antagonistic activity ([1]; dose 1.0 μg/kg) [h] | SMILES | Inhibitory rate, preventive effect ([2]; 0.01 mg/kg) [%] | Inhibitory rate, therapeutic effect ([2]; 0.01 mg/kg) [%] | 5-HT3 antagonistic activity compared to the compound of the present invention ([1]; in words, reason why duration was not measured) | ED50 [1] [µg/kg] | Duration time of 5-HT3 antagonistic activity ([1]; dose 100 μg/kg) [h] | Inhibitory rate, preventive effect ([2]; 0.1 mg/kg) [%] | Inhibitory rate, therapeutic effect ([2]; 0.1 mg/kg) [%] | Death of animals [3] | Inhibition of vomiting caused by chemotherapeutics such as cisplatin [4]
> 8 | CC(C)n1c(N2CCN(C)CC2)nc2cc(Cl)c(N)cc21 [Compound 1, 6-Amino-5-chloro-1-isopropyl-2-(4-methyl-1-piperazinyl)benzimidazole] | 100 | 100 | – | – | – | – | – | – | –
> 8 | CC(C)n1c(N2CCN(C)CC2)nc2cc(Cl)c(N)cc21.O=C(O)/C=C\C(=O)O.O=C(O)/C=C\C(=O)O [Compound 2, 6-Amino-5-chloro-1-isopropyl-2-(4-methyl-1-piperazinyl)benzimidazole dimaleate] | 85 | 100 | – | – | – | – | – | – | –
– | CN1CCN(c2nc3ccccc3n2C)CC1 [Compound A, 1-Methyl-2-(4-methyl-1-piperazinyl)benzimidazole] | – | – | quite low as compared to the compound of the present invention | > 3 | – | – | – | – | –
– | Cc1nccn1CC1CCc2c(c3ccccc3n2C)C1=O (centres unmarked) [Reference compound, Ondansetron] | – | – | – | 4 | 2 | 31 | 77 | all animals were dead | effective
